test system: human plasma; assay: One-bead-one-compound cXXXXXc peptide library screening, biotinylated serum (first mixture) then plasma (target mixture), BCIP staining and (B-A)/A image analysis; format: binding; conditions: 4 μg biotinylated serum, then 4 μg biotinylated plasma, 1 hour each at 23° C., sequence by automated peptide sequencing
Source text: General Method. The two mixtures of molecules to be compared were human plasma, referred to as “the target mixture,” and human serum, referred to as “the first mixture.” Both the plasma and serum were biotinylated with EZ-Link™ Sulfo-NHS-LC-Biotin from Pierce. Bead libraries were generated on TenteGel from Rapp Polymere. Amino acids used in bead library synthesis were from Synpep. Bead library screenings were done in disposable polypropylene columns from Perkin Elmer Life Sciences. All buffer reagents were from Sigma unless otherwise noted. PBS, TBS and BCIP buffers were as described in Lam, Kit S. and Michal Lebl, “Synthesis of a one-bead one-compound combinatorial peptide library,” Methods in Molecular Biology, vol. 87, Combinatorial Peptide Library Protocols. Edited by Shmuel Cabilly (Humana Press: 1997), 1-6. Bead staining utilized BCIP from Bio Synth AG which was hydrolyzed with streptavidin-alkaline phosphatase conjugate from Zymed. Bead immobilization was done in SeaPlaque agarose from Bio Wittaker Molecular Applications in Omni tray lids from Nunc/Nalgene. Scanned images were generated on a flatbed transparency scanner from Umax. Computer imaging was accomplished with Adobe Photoshop and compiler software was from Metrowerks. Amino acid sequencing was done on an Applied Biosystems Procise 494 Protein Sequencer.
Library Synthesis. “One-bead-one-compound” cXXXXXc peptide libraries were synthesized essentially as described (Lam and Lebl, Methods in Molecular Biology, vol. 87) using the “split synthesis approach,” where “X” denotes any L-amino acid except for cysteine, arginine, and lysine, and “c” is D-cysteine. TenteGel was used as a solid support and standard Fmoc chemistry was used for the solid phase peptide synthesis reactions. (Stewart and Young 1984. Solid-Phase Peptide Synthesis. Pierce Chemical Co. Atherton, E. and R. C. Sheppard. 1989. Solid Phase Peptide Synthesis: A Practical Approach. Practical Approach Series.)
Extract Preparation and Biotinlation. Human plasma and serum were prepared by the collection of human blood into stoppered vacuum tubes in the presence of Na-heparin as an anti-coagulant for plasma and in the absence of Na-heparin for serum. Blood was allowed to clot in the tubes for 25 minutes after which the top layer of […] was collected. Na-heparin was added to the serum to equalize the amount of Na-heparin in plasma and serum after which both samples were centrifuged at 1000 rpm for 20 minutes in a Sorvall SS34 centrifuge rotor. After centrifugation, samples were aliquoted, dialyzed against PBS for four hours at 4° C., quantitated and stored frozen at −80° C. The concentrations of the plasma and serum protein extracts after dialysis were 66.5 and 57.8 mg/ml, respectively.
Plasma and serum were tagged using biotinylation where biotin was the label and streptavidin alkaline phosphatase conjugate was the label binder. Biotinylation was performed according to the manufacturer's instructions. About 0.2 mg of protein was incubated in PBS with a 20-fold molar excess of sulfo-NHS-LC-biotin for 30 minutes at 23° C. The reaction was quenched by the addition of Tris-HCl pH 7.9 to 100 mM. For calculations of molarity, the average molecular weight of the proteins in the plasma and serum solutions was assumed to be 50 kD.
Library Screening. Four experiments were conducted. On average, 250,000 “one-bead-one-compound” beads were screened in each experiment. All bead reactions were performed in 1.5 ml polypropylene disposable micro-columns with inside dimensions of 37 mm×6 mm. Unless otherwise noted, all bead reactions were incubated on a Lab quake bench top rotator (Barnstead/Thermolyne) for 1 hour at 23° C. Bead libraries were stored in PBS with 0.05% sodium-azide. All incubation buffers and components were thoroughly mixed before addition to the column containing the bead library. […]

| Substance | ligands identified on true positive beads (beads that bound molecules essentially unique to the plasma) |
| --- | --- |
| cHVHPWc | identified |
| cHYQTGc | identified |
| cMHGHFc | identified |
| cFHNNHc | identified |
| cNLTHIc | identified |
| cPFHHSc | identified |
| cYGHFSc | identified |
| cAHVWHc | identified |
| cGIHYLc | identified |
| cHTLHQc | identified |
| cHGHTIc | identified |
| cHYHVSc | identified |
